Test results: ChEMBL document CHEMBL3992552, “Mechanisms of action and structure-activity relationships of cytotoxic flavokawain derivatives” (Bioorg Med Chem, 2017)
The source made the active and inactive calls. No cut-off for these calls is given here.

What was measured:
[1] = tested on: HCT-116; test: Induction of apoptosis in human HCT116 cells harboring wild-type p53 assessed as increase in early apoptosis at 2 times IC50 after 48 hrs by YoPro/propidium iodide/Hoechst staining based assay; assay type: functional, cell-based
[2] = tested on: HaCaT; test: Cell cycle arrest in human HaCaT cells harboring […] p53 assessed as accumulation at S phase at 10 uM measured after 48 hrs by Hoechst/BrdU staining based fluorescence assay (reference value: 52.3%); assay type: functional
[3] = tested on: HCT-116; test: Cell cycle arrest in human HCT116 cells harboring wild-type p53 assessed as mitotic index at 25 uM measured after 48 hrs by Hoechst staining based fluorescence assay (reference value: 2.3); assay type: functional
[4] = tested on: HCT-116; test: Induction of apoptosis in human HCT116 cells harboring wild-type p53 assessed as upregulation of p21 measured after 48 hrs by Hoechst staining based fluorescence assay; assay type: functional, cell-based
[5] = tested on: Huh-7; test: Cell cycle arrest in human HuH7 cells assessed as mitotic index at 25 uM measured after 48 hrs by Hoechst staining based fluorescence assay (reference value: 2.2); assay type: functional
[6] = tested on: PC-3; test: Induction of apoptosis in human PC3 cells harboring p53 mutant assessed as increase in late apoptosis at 2 times IC50 after 48 hrs by YoPro/propidium iodide/Hoechst staining based assay; assay type: functional, cell-based
[7] = tested on: MDA-MB-231; test: Cell cycle arrest in human MDA-MB-231 cells harboring p53 mutant assessed as mitotic index at 10 uM measured after 48 hrs by Hoechst staining based fluorescence assay (reference value: 2.1); assay type: functional
[8] = tested on: HCT-116; test: Induction of apoptosis in human HCT116 cells harboring wild-type p53 assessed as upregulation of cyclinB1 measured after 48 hrs by Hoechst staining based assay; assay type: functional, cell-based
[9] = tested on: Fibroblast; test: Cytotoxicity against human fibroblasts assessed as cell viability after 48 hrs by Hoechst 33342 staining based assay
[10] = tested on: NCI-H727; test: Cytotoxicity against human NCI-H727 cells assessed as cell viability after 48 hrs by Hoechst 33342 staining based assay; assay type: functional; conditions: NCI-H727, 48 h
[11] = tested on: RL; test: Cytotoxicity against human RL assessed as cell viability after 48 hrs by Hoechst 33342 staining based assay; assay type: functional
[12] = tested on: PC-3; test: Cell cycle arrest in human PC3 cells harboring p53 mutant assessed as mitotic index at 25 uM measured after 48 hrs by Hoechst staining based fluorescence assay (reference value: 2.5); assay type: functional
[13] = tested on: MCF7; test: Induction of apoptosis in human MCF7 cells harboring wild-type p53 assessed as upregulation of cyclinB1 measured after 18 hrs by Hoechst staining based assay; assay type: functional, cell-based
[14] = tested on: NCI-H727; test: Cytotoxicity against human NCI-H727 cells assessed as cell survival at 50 uM after 48 hrs by Hoechst 33342 staining based assay relative to control; assay type: functional; conditions: NCI-H727, 48 h, read-out: Survival
[15] = tested on: HCT-116; test: Induction of apoptosis in human HCT116 cells harboring wild-type p53 assessed as increase in late apoptosis at 2 times IC50 after 48 hrs by YoPro/propidium iodide/Hoechst staining based assay; assay type: functional, cell-based
[16] = tested on: PC-3; test: Cell cycle arrest in human PC3 cells harboring p53 mutant assessed as accumulation at S phase at 10 uM measured after 48 hrs by Hoechst/BrdU staining based fluorescence assay (reference value: 40.8%); assay type: functional
[17] = tested on: PC-3; test: Induction of apoptosis in human PC3 cells harboring p53 mutant assessed as increase in cleaved caspase3 at 2 times IC50 after 48 hrs by Hoechst staining based assay; assay type: functional, cell-based
[18] = tested on: HCT-116; test: Cytotoxicity against human HCT116 cells assessed as cell viability after 48 hrs by Hoechst 33342 staining based assay; assay type: functional; conditions: HCT-116, 48 h
[19] = tested on: Huh-7; test: Cell cycle arrest in human HuH7 cells assessed as accumulation at S phase at 25 uM measured after 48 hrs by Hoechst/BrdU staining based fluorescence assay (reference value: 44%); assay type: functional
[20] = tested on: NCI-H727; test: Cell cycle arrest in human NCI-H727 cells harboring p53 mutant assessed as accumulation at S phase at 10 uM measured after 48 hrs by Hoechst/BrdU staining based fluorescence assay (reference value: 40.3%); assay type: functional
[21] = tested on: NCI-H727; test: Cell cycle arrest in human NCI-H727 cells harboring p53 mutant assessed as mitotic index at 10 uM measured after 48 hrs by Hoechst staining based fluorescence assay (reference value: 1.1); assay type: functional
[22] = Selectivity index, ratio of IC50 for human fibroblasts to IC50 for human MCF7 cells
[23] = Selectivity index, ratio of IC50 for human fibroblasts to IC50 for human Caco2 cells
[24] = tested on: MDA-MB-231; test: Cell cycle arrest in human MDA-MB-231 cells harboring p53 mutant assessed as mitotic index at 25 uM measured after 48 hrs by Hoechst staining based fluorescence assay (reference value: 2.1); assay type: functional
[25] = tested on: MDA-MB-231; test: Cell cycle arrest in human MDA-MB-231 cells harboring p53 mutant assessed as accumulation at S phase at 10 uM measured after 48 hrs by Hoechst/BrdU staining based fluorescence assay (reference value: 42.2%); assay type: functional
[26] = tested on: PC-3; test: Induction of apoptosis in human PC3 cells harboring p53 mutant assessed as upregulation of cyclinB1 after 48 hrs by Hoechst staining based assay; assay type: functional, cell-based
[27] = Selectivity index, ratio of IC50 for human fibroblasts to IC50 for human RL cells
[28] = tested on: Caco-2; test: Cell cycle arrest in human Caco2 cells assessed as accumulation at M phase by Hoechst staining based fluorescence assay; assay type: functional
[29] = tested on: Caco-2; test: Cytotoxicity against human Caco2 cells assessed as cell survival at 50 uM after 48 hrs by Hoechst 33342 staining based assay relative to control; assay type: functional; conditions: Caco-2, 48 h, read-out: Survival
[30] = tested on: PC-3; test: Cell cycle arrest in human PC3 cells assessed as accumulation at M phase by Hoechst staining based fluorescence assay; assay type: functional
[31] = tested on: MDA-MB-231; test: Cell cycle arrest in human MDA-MB-231 cells harboring p53 mutant assessed as accumulation at S phase at 25 uM measured after 48 hrs by Hoechst/BrdU staining based fluorescence assay (reference value: 42.2%); assay type: functional
[32] = tested on: NCI-H727; test: Cell cycle arrest in human NCI-H727 cells harboring p53 mutant assessed as mitotic index at 25 uM measured after 48 hrs by Hoechst staining based fluorescence assay (reference value: 1.1); assay type: functional
[33] = tested on: NCI-H727; test: Cell cycle arrest in human NCI-H727 cells assessed as accumulation at G1/S phase by Hoechst staining based fluorescence assay; assay type: functional
[34] = Selectivity index, ratio of IC50 for human fibroblasts to IC50 for human NCI-H727 cells
[35] = Selectivity index, ratio of IC50 for human fibroblasts to IC50 for human HaCaT cells
[36] = Selectivity index, ratio of IC50 for human fibroblasts to IC50 for human HuH7 cells

| SMILES | Activity [1] | Activity [2] | Activity_index [3] | Activity [4] | Activity [6] | Activity [7] | Activity [8] | IC50 [9] [µM] | IC50 [10] [µM] | IC50 [11] [µM] | Activity_index [12] | Activity [13] | viability at 50 µM [14] [%] | Activity [15] | Activity [16] [%] | Activity [17] | IC50 [18] [µM] | Activity [19] | Activity [20] | Ratio IC50 [22] | also measured |
| --- | --- | --- | --- | --- | --- | --- | --- | --- | --- | --- | --- | --- | --- | --- | --- | --- | --- | --- | --- | --- | --- |
| COc1cc(O)c(C(=O)/C=C/c2ccc(F)cc2)c(OC)c1 | Active | inactive | 0.7 | Active | Active | inactive | Active | > 20 | > 20 | 5.4 | 5.3 | Active | 54 | Active | 37 | Active | 12.4 | inactive | inactive | >5.7 | Activity [5]: inactive; Activity [21]: inactive; Ratio IC50 [23]: >5.4; Activity [24]: inactive; Activity [25]: inactive; Activity [26]: Active; Ratio IC50 [27]: >5.4; Activity [28]: Active; viability at 50 µM [29]: 45%; Activity [30]: Active; Activity [31]: inactive; Activity [32]: inactive |
| COc1cc(O)c(C(=O)/C=C/c2ccccc2OC)c(OC)c1 | Active | 49% | 1.8 | Active | Active | inactive | Active | > 20 | 11 | 10.1 | 7.2 | Active | 11 | Active | 36 | Active | 9.2 | inactive | 43% | 3.5 | Activity [33]: Active; Ratio IC50 [34]: 3.3; Activity [5]: inactive; Ratio IC50 [35]: 3.3; Activity_index [21]: 1; Ratio IC50 [23]: 3.6; Activity [24]: inactive; Activity [25]: inactive; Activity [26]: Active; Ratio IC50 [27]: 3.6; Activity [28]: Active; viability at 50 µM [29]: 43%; Activity [30]: Active; Activity [31]: inactive; Activity_index [32]: 0.5 |
| COc1cc(O)c(C(=O)/C=C/c2ccccc2SC)c(OC)c1 | Active | 51% | 1.3 | Active | Active | inactive | Active | > 20 | 9 | 8.9 | 7.6 | Active | 8 | Active | 35 | Active | 10 | 37% | 43% | 2.3 | Activity [33]: Active; Ratio IC50 [34]: 4; Activity_index [5]: 5.3; Ratio IC50 [35]: 3.4; Activity_index [21]: 0.9; Ratio IC50 [23]: 3.8; Activity [24]: inactive; Activity [25]: inactive; Activity [26]: Active; Ratio IC50 [27]: 4.1; Activity [28]: Active; Ratio IC50 [36]: 2.2; viability at 50 µM [29]: 23%; Activity [30]: Active; Activity [31]: inactive; Activity_index [32]: 0.4 |
